ChEMBL document CHEMBL4017458, “Discovery of selective, orally bioavailable, N-linked arylsulfonamide Nav1.7 inhibitors with pain efficacy in mice” (Bioorg Med Chem Lett, 2017)
Values after ≈ are worked out from the molar mass of the structure shown.

Experiments:
Rattus norvegicus = assay: Intrinsic clearance in rat at 0.05 mg/kg, iv administered in cassette format or 2 mg/kg, iv administered as single dose or 10 mg/kg, po; format: ADME, organism-based; conditions: in vivo
[1] = Oral bioavailability in rat at 10 mg/kg; format: ADME, organism-based; conditions: in vivo
[2] = Lipophilicity, log D of compound by HPLC analysis; format: physicochemical
[3] = Kinetic solubility of the compound at pH 2 by HPLC analysis; format: physicochemical; conditions: buffer, read-out: Kinetic_solubility
[4] = Tmax in po dosed C57BL/6 mouse; format: ADME, organism-based; conditions: in vivo
Plasma [5] = assay: Plasma concentration in C57BL/6 mouse at 1 to 10 mg/kg, po; format: ADME, organism-based; conditions: in vivo
[6] = Kinetic solubility of the compound at pH 7 by HPLC analysis; format: physicochemical; conditions: buffer, read-out: Kinetic_solubility
Brain = assay: Drug uptake in C57BL/6 mouse brain at 30 mg/kg, po; format: ADME, organism-based; conditions: in vivo
[7] = Drug uptake in CSF of C57BL/6 mouse at 30 mg/kg, po; format: ADME, organism-based, Cerebrospinal fluid; conditions: in vivo
Plasma [8] = assay: Plasma concentration in C57BL/6 mouse at 3 to 30 mg/kg, po; format: ADME, organism-based; conditions: in vivo

Structure (SMILES) | CL (Rattus norvegicus) | bioavailability [1] | logD [2] | other results
O=S(=O)(Nc1ncns1)c1cc(F)c(NCC23CCCN2CCC3)cc1F | 62 mL/min/kg | 4% | 0 | 
O=S(=O)(Nc1nccs1)c1cc(Cl)c(NCC23CCCCN2CCCC3)cc1F | 3000 mL/min/kg |  | 2.2 | 
O=S(=O)(Nc1ccncn1)c1cc(Cl)c(NCC23CCCN2CCC3)cc1F | 61 mL/min/kg |  | -0.2 | 
CC1(C)CN2CCC[C@]2(CNc2cc(F)c(S(=O)(=O)Nc3nccs3)cc2Cl)C1 | 460 mL/min/kg | 61% | 1.7 | solubility kinetic [3]: 143 µM (≈ 65.6 µg/mL); Tmax [4]: 3 h; concentration (Plasma [5]): 250 nM; solubility kinetic [6]: 28 µM (≈ 12.9 µg/mL)
O=S(=O)(Nc1nccs1)c1cc(Cl)c(NCCC23CCCN2CCC3)cc1F | 1600 mL/min/kg | 30% | 0.6 | 
O=S(=O)(Nc1nccs1)c1cc(Cl)c(NCC23CCCN2CC(F)(F)C3)cc1F (configuration not stated) |  |  | 1.7 | 
O=S(=O)(Nc1nccs1)c1cc(Cl)c(NC[C@]23CCCN2C[C@@H](F)C3)cc1F | 810 mL/min/kg | 57% | 1.5 | 
O=S(=O)(Nc1nccs1)c1cc(Cl)c(NC[C@@]23CCCN2C[C@H](F)C3)cc1F |  |  | 1.5 | 
CC1(C)CN2CCC[C@@]2(CNc2cc(F)c(S(=O)(=O)Nc3nccs3)cc2Cl)C1 | 850 mL/min/kg | 45% | 1.7 | 

Second part, led by results:

CL (Rattus norvegicus) | bioavailability [1] | logD [2] | Structure (SMILES) | other results
560 mL/min/kg |  | 1.1 | Cc1cnc(NS(=O)(=O)c2cc(Cl)c(NCC34CCCN3CCC4)cc2F)s1 | 
230 mL/min/kg | 55% | 1 | O=S(=O)(Nc1ncc(F)s1)c1cc(Cl)c(NCC23CCCN2CCC3)cc1F | 
 |  | 0.7 | O=S(=O)(Nc1cscn1)c1cc(Cl)c(NCC23CCCN2CCC3)cc1F | 
 | 40% | 0.7 | O=S(=O)(Nc1nccs1)c1cc(Cl)c(NCC23CCCN2CCC3)cc1F | solubility kinetic [3]: 159 µM (≈ 68.5 µg/mL); Drug uptake (Brain): 6%; Drug uptake [7]: 1%; Tmax [4]: 3 h; concentration (Plasma [8]): 420 nM; solubility kinetic [6]: 43 µM (≈ 18.5 µg/mL)
630 mL/min/kg |  | 1.3 | Cc1nc(NS(=O)(=O)c2cc(Cl)c(NCC34CCCN3CCC4)cc2F)sc1F | 
660 mL/min/kg |  | 0.4 | O=S(=O)(Nc1ncns1)c1cc(Cl)c(NCC23CCCN2CCC3)cc1F | 
71 mL/min/kg | 36% | 1.1 | Cc1csc(NS(=O)(=O)c2cc(Cl)c(NCC34CCCN3CCC4)cc2F)n1 | 
780 mL/min/kg | 45% | 1.3 | O=S(=O)(Nc1ncc(Cl)s1)c1cc(Cl)c(NCC23CCCN2CCC3)cc1F | 
610 mL/min/kg | 26% | 1 | O=S(=O)(Nc1cccc(F)n1)c1cc(Cl)c(NCC23CCCN2CCC3)cc1F | 
